Laboratory results published in patent US12281079B2, “Quinoline derivatives, processes for their preparation and uses thereof for the treatment of cancer” (Lead Discovery Center GmbH, priority 2019, dated 2025).
Where a name gives a salt, the structure may show the parent alone.

Tests used:
[1] = tested on: mitochondrial transcription (7S RNA) in HeLa cells; test: Quantitative real time-PCR assay of inhibition of mitochondrial transcription (7S RNA) in HeLa cells; assay type: cell-based; settings: Homo sapiens, 4 h compound incubation, according to Example 5, read-out: cellular qPCR assay
Procedure, shortened: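 HeLa cells were exposed to compound dilution series or DMSO for 4 h, then RNA was extracted, normalized and reverse-transcribed. TaqMan qRT-PCR measured short-lived 7S RNA, with POLRMT as nuclear-transcription readout and TBP as housekeeping gene. Biological triplicates were analyzed by ΔΔCt and reported as Rq % (2−ΔΔCt).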

[2] = biological target: mitochondrial RNA polymerase (POLRMT) (Mus musculus, UniProt Q8BKF1); test: Homogeneous TR-FRET assay for mitochondrial transcription activity; assay type: biochemical; settings: homogeneous TR-FRET assay according to Example 4
Sequence of mitochondrial RNA polymerase (POLRMT) (Q8BKF1 42-1207): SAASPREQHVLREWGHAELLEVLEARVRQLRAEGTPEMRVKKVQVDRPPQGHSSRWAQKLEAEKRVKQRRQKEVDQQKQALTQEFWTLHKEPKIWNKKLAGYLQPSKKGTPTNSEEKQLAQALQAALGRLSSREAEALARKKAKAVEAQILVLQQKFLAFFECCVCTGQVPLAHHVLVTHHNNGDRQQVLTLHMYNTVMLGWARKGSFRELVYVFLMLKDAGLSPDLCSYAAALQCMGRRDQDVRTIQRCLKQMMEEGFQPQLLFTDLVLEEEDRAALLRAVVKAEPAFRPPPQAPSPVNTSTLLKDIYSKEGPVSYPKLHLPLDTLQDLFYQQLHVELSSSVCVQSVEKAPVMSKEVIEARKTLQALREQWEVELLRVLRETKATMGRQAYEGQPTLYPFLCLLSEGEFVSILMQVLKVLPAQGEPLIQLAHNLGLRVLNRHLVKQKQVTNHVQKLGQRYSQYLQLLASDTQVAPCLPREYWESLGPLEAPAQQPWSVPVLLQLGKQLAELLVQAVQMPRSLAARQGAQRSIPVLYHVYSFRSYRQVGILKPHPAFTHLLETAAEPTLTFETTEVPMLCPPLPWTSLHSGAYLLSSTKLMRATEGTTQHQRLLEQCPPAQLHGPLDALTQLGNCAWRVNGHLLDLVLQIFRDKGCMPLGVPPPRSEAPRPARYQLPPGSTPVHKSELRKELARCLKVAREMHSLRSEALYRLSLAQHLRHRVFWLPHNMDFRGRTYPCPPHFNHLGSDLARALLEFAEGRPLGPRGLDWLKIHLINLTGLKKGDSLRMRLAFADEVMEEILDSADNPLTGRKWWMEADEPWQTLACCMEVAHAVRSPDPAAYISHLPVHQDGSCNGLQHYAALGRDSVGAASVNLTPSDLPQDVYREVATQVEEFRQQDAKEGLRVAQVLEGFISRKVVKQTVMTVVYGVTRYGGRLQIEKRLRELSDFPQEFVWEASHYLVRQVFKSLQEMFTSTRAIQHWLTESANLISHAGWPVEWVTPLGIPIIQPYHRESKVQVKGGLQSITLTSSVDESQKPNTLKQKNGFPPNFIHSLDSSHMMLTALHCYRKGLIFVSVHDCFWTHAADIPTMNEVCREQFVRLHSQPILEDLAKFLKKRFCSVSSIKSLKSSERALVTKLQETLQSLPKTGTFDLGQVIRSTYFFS
Procedure, shortened: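 Read-out is TR-FRET (ex 340, em 665 nm) from two adjacent labelled DNA probes annealing to the 407 bp transcript after EDTA/700 mM NaCl stop. Reaction: murine POLRMT, TFAM, TFB2M and LSP plasmid template, compound 10 μM or serial dilution, 10 min rt preincubation, 500 μM each nucleotide, 2 h rt.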

Structure (SMILES)	IC50 [1]	IC50 [2]
C[C@@H](Oc1ccc2c(-c3ccc(F)cc3Cl)ccnc2c1)C(=O)N1CCNCC1 [Compound 55, (R)-2-((4-(2-chloro-4-fluorophenyl)quinolin-7 yl)oxy)-1-(piperazin-1 yl)propan-1-one 2×TFA salt]	50 to 500 nM	100 to 1000 nM
Cc1cc(F)ccc1-c1cc(Cl)nc2cc(O[C@H](C)C(=O)N3CCC[C@H](CC(=O)O)C3)ccc12 [Compound 57, 2-[(3R)-1-[(2R)-2-[[2-chloro-4-(4-fluoro-2-methyl-phenyl)-7-quinolyl]oxy]propanoyl]-3-piperidyl]acetic acid]	50 to 500 nM	100 to 1000 nM
C[C@@H](Oc1ccc2c(-c3ccc(F)cc3Cl)ccnc2c1)C(=O)Nc1ccc(C(=O)O)cc1 [Compound 60, 4-[[(2R)-2-[[4-(2-chloro-4-fluoro-phenyl)-7-quinolyl]oxy]propanoyl]amino]benzoic acid]	50 to 500 nM	100 to 1000 nM
CC(C)NC(=O)[C@@H](C)Oc1ccc2c(-c3ccc(F)cc3Cl)ccnc2c1 [Compound 61, (2R)-2-[[4-(2-chloro-4-fluoro-phenyl)-7-quinolyl]oxy]-N-isopropyl-propanamide]	50 to 500 nM	100 to 1000 nM
C[C@@H](Oc1ccc2c(-c3ccc(F)cc3Cl)ccnc2c1)C(=O)N1CCNC(=O)C1 [Compound 63, (R)-4-(2-((4-(2-chloro-4-fluorophenyl)quinolin-7-yl)oxy)propanoyl)piperazin-2-one]	50 to 500 nM	100 to 1000 nM
C[C@@H](Oc1ccc2c(-c3ccccc3)ccnc2c1)C(=O)N1CCC[C@H](C(=O)O)C1 [Compound 66, (3S)-1-[(2R)-2-[(4-phenyl-7-quinolyl)oxy]propanoyl]piperidine-3-carboxylic acid]	10 to 50 nM	100 to 1000 nM
Cc1ccccc1-c1cc(Cl)nc2cc(O[C@H](C)C(=O)OC(C)(C)C)ccc12 [Compound 73, tert-butyl (2R)-2-[[2-chloro-4-(o-tolyl)-7-quinolyl]oxy]propanoate]	50 to 500 nM	100 to 1000 nM
CCOC(=O)C[C@H]1CCCN(C(=O)[C@@H](C)Oc2ccc3c(-c4ccc(F)cc4Cl)cc(C)nc3c2)C1 [Compound 74, ethyl 2-[(3R)-1-[(2R)-2-[[4-(2-chloro-4-fluoro-phenyl)-2-methyl-7-quinolyl]oxy]propanoyl]-3-piperidyl]acetate]	50 to 500 nM	100 to 1000 nM
C[C@@H](Oc1ccc2c(-c3ccc(F)cc3Cl)ccnc2c1)C(=O)NC1CC1 [Compound 77, (2R)-2-[[4-(2-chloro-4-fluoro-phenyl)-7-quinolyl]oxy]-N-cyclopropyl-propanamide]	50 to 500 nM	100 to 1000 nM
Cc1sccc1-c1ccnc2cc(O[C@H](C)C(=O)N3CCC[C@H](CC(=O)O)C3)ccc12 [Compound 79, 2-[(3R)-1-[(2R)-2-[[4-(2-methyl-3-thienyl)-7-quinolyl]oxy]propanoyl]-3-piperidyl]acetic acid]	50 to 500 nM	100 to 1000 nM
CC(Oc1ccc2c(-c3ccccc3Cl)ccnc2c1)C(=O)N(C)C (stereo not drawn) [Compound 86, 2-[[4-(2-chlorophenyl)-7-quinolyl]oxy]-N,N-dimethyl-propanamide]	50 to 500 nM	1000 to 10000 nM
C[C@@H](Oc1ccc2c(-c3ccccc3Cl)ccnc2c1)C(=O)N(C)C [Compound 88, (2R)-2-[[4-(2-chlorophenyl)-7-quinolyl]oxy]-N,N-dimethyl-propanamide]	50 to 500 nM	1000 to 10000 nM
C[C@@H](Oc1ccc2c(-c3ccc(F)cc3Cl)ccnc2c1)C(=O)Nc1ccncc1 [Compound 95, (2R)-2-[[4-(2-chloro-4-fluoro-phenyl)-7-quinolyl]oxy]-N-(4-pyridyl)propanamide]	50 to 500 nM	100 to 1000 nM

The next lines start with the values.

IC50 [1]	IC50 [2]	Structure (SMILES)
50 to 500 nM	100 to 1000 nM	C[C@@H](Oc1ccc2c(-c3ccc(F)cc3Cl)cc(Cl)nc2c1)C(=O)N1CCC[C@H](CC(=O)O)C1 [Compound 56, 2-[(3R)-1-[(2R)-2-[[2-chloro-4-(2-chloro-4-fluoro-phenyl)-7-quinolyl]oxy]propanoyl]-3-piperidyl]acetic acid]
10 to 50 nM	100 to 1000 nM	Cc1cc(-c2ccc(F)cc2Cl)c2ccc(O[C@H](C)C(=O)N3CCC[C@H](C(=O)O)C3)cc2n1 [Compound 59, (3S)-1-[(2R)-2-[[4-(2-chloro-4-fluoro-phenyl)-2-methyl-7-quinolyl]oxy]propanoyl]piperidine-3-carboxylic acid]
50 to 500 nM	100 to 1000 nM	C[C@@H](Oc1ccc2c(-c3ccc(F)cc3Cl)cc(Cl)nc2c1)C(=O)N1CCC[C@H](C(=O)O)C1 [Compound 64, (3S)-1-[(2R)-2-[[2-chloro-4-(2-chloro-4-fluoro-phenyl)-7-quinolyl]oxy]propanoyl]piperidine-3-carboxylic acid]
50 to 500 nM	100 to 1000 nM	CNC(=O)C[C@H]1CCCN(C(=O)[C@@H](C)Oc2ccc3c(-c4ccccc4Cl)cc(Cl)nc3c2)C1 [Compound 68, 2-[(3R)-1-[(2R)-2-[[2-chloro-4-(2-chlorophenyl)-7-quinolyl]oxy]propanoyl]-3-piperidyl]-N-methyl-acetamide]
10 to 50 nM	100 to 1000 nM	Cc1cc(-c2ccccc2C)c2ccc(O[C@H](C)C(=O)N3CCC[C@H](CC(=O)O)C3)cc2n1 [Compound 69, 2-[(3R)-1-[(2R)-2-[[2-methyl-4-(o-tolyl)-7-quinolyl]oxy]propanoyl]-3-piperidyl]acetic acid]
500 to 5000 nM	100 to 1000 nM	C[C@@H](Oc1ccc2c(-c3ccccc3Cl)cc(Cl)nc2c1)C(=O)N1CCN(C(=O)C2CC2)CC1 [Compound 70, (2R)-2-[[2-chloro-4-(2-chlorophenyl)-7-quinolyl]oxy]-1-[4-(cyclopropanecarbonyl)piperazin-1-yl]propan-1-one]
10 to 50 nM	100 to 1000 nM	C[C@@H](Oc1ccc2c(-c3ccccc3Cl)cc(Cl)nc2c1)C(=O)N1CCC[C@H](C(N)=O)C1 [Compound 76, (3S)-1-[(2R)-2-[[2-chloro-4-(2-chlorophenyl)-7-quinolyl]oxy]propanoyl]piperidine-3-carboxamide]
500 to 5000 nM	100 to 1000 nM	C[C@H](Oc1ccc2c(-c3ccccc3Cl)ccnc2c1)C(=O)N1CCC[C@H](C(=O)O)C1 [Compound 78, (3S)-1-[(2S)-2-[[4-(2-chlorophenyl)-7-quinolyl]oxy]propanoyl]piperidine-3-carboxylic acid]
50 to 500 nM	1000 to 10000 nM	C[C@@H](Oc1ccc2c(-c3ccc(F)cc3Cl)cc(Cl)nc2c1)C(=O)N1CCC[C@H](C(N)=O)C1 [Compound 81, (3S)-1-[(2R)-2-[[2-chloro-4-(2-chloro-4-fluoro-phenyl)-7-quinolyl]oxy]propanoyl]piperidine-3-carboxamide]
500 to 5000 nM	1000 to 10000 nM	C[C@@H](Oc1ccc2c(-c3ccccc3Cl)cc(Cl)nc2c1)C(=O)N1CCC[C@H](CC(=O)O)C1 [Compound 83, 2-[(3R)-1-[(2R)-2-[[2-chloro-4-(2-chlorophenyl)-7-quinolyl]oxy]propanoyl]-3-piperidyl]acetic acid]
500 to 5000 nM	1000 to 10000 nM	C[C@@H](Oc1ccc2c(-c3ccccc3Cl)cc(Cl)nc2c1)C(=O)N1CCCCC1 [Compound 99, (2R)-2-[[2-chloro-4-(2-chlorophenyl)-7-quinolyl]oxy]-1-(1-piperidyl)propan-1-one]
